Values of other authors, collected in US4242298A, “Polysaccharide ester membrane clearing process” (priority 1979, dated 1980).
Read-outs that look alike come from different tables or passages of the source.

Columns and labels:
[1] = system: rat; details: oral
[2] = system: rat; details: inhalation
[3] = system: rats; details: 2000 ppm, 8 hours
[4] = system: rats; details: 6 hours
[5] = system: rats; details: number of hours not given

| SMILES | LD50 [1] [mg/kg] | LCLo ([2]; 4H) [ppm] | other results |
| --- | --- | --- | --- |
| CCOCCO [2-ethoxyethanol] | 3000 | 4000 | – |
| CCOCCOC(C)=O [2-ethoxyethyl acetate] | 5100 | – | LCLo ([2]; 8H): 1500 ppm |
| CC(=O)O [Acetic Acid, reference compound] | – | 1600 | – |
| O=C1CCCCC1 [Cyclohexanone, reference compound] | 1620 | 2000 | – |
| CC(=O)CO [acetol] | 2200 | – | lethality on exposure [3]: nonlethal |
| CCOC(=O)CC(C)=O [ethyl acetoacetate] | – | – | animal's growth, following exposure ([4]; 1129 ppm (calculated)): normal; symptoms on exposure ([4]; 1129 ppm (calculated)): no symptoms |
| COC(=O)CC(C)=O [methyl acetoacetate] | 3000 | – | animal's growth, following exposure ([4]; 1370 ppm (calculated)): normal; symptoms on exposure ([4]; 1370 ppm (calculated)): no symptoms; lethality on exposure to concentrated vapor [5]: nonlethal |
